Measurements taken from PubChem BioAssay AID1259411 (Chemical Carcinogenesis Research Information System (CCRIS), 2018).
The source made the active and inactive calls. How the calls were made is not given here.

Tested on: rodent carcinogenicity bioassays, tumor incidence
Experiment: CCRIS carcinogenicity studies
How it was run: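 NCI-built, expert-reviewed records of carcinogenicity and related test outcomes (mutagenicity, tumor promotion/inhibition) compiled from published and report sources, historical span 1985-2011, not updated.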

Question: For `CC(CCl)OC(C)CCl` (configuration not stated), which carcinogen call (Species: MOUSE, Strain/Sex: B6C3F1/FEMALE, Route: GAVAGE, Dose: 0, 100, 200 MG/KG IN CORN OIL 5/WK FOR 103 WK, Dose: 0, 100, 200 MG/KG IN CORN OIL 5/WK FOR 103 WK, Tumor Site: Type of Lesion: LUNG: ALVEOLAR/BRONCHIOLAR ADENOMA, CARCINOMA) is on record?
Answer: active; positive

Question: And the carcinogen call (Species: MOUSE, Strain/Sex: B6C3F1/MALE, Route: GAVAGE, Dose: 0, 100, 200 MG/KG IN CORN OIL 5/WK FOR 103 WK, Dose: 0, 100, 200 MG/KG IN CORN OIL 5/WK FOR 103 WK, Tumor Site: Type of Lesion: LUNG: ALVEOLAR/BRONCHIOLAR ADENOMA, CARCINOMA, LIVER: HEPATOCELLULAR ADENOMA, CARCINOMA)?
Answer: active; positive

Question: What about the carcinogen call (Species: RAT, Strain/Sex: F344/FEMALE, Route: GAVAGE, Dose: 0, 100, 200 MG/KG IN CORN OIL, Dose: 0, 100, 200 MG/KG IN CORN OIL) of the same compound?
Answer: inactive; negative

Question: What about the carcinogen call (Species: RAT, Strain/Sex: F344/MALE, Route: GAVAGE, Dose: 0, 100, 200 MG/KG IN CORN OIL, Dose: 0, 100, 200 MG/KG IN CORN OIL) of the same compound?
Answer: inactive; negative

Question: What does the source list for `Cc1cc(-c2ccc(N)c(C)c2)ccc1N`?
Answer: carcinogen call (Species: MOUSE, Strain/Sex: BALB/FEMALE, Route: ORAL, Dose: 0, 5, 9, 18, 35, 70, 140 PPM IN DRINKING WATER 7 D/WK FOR DURATION OF STUDY (STUDY DURATION: 112 WK), Dose: 0, 5, 9, 18, 35, 70, 140 PPM IN DRINKING WATER 7 D/WK FOR DURATION OF STUDY (STUDY DURATION: 112 WK)): inactive; negative; carcinogen call (Species: MOUSE, Strain/Sex: BALB/MALE, Route: ORAL, Dose: 0, 5, 9, 18, 35, 70, 140 PPM IN DRINKING WATER 7 D/WK FOR DURATION OF STUDY (STUDY DURATION: 112 WK), Dose: 0, 5, 9, 18, 35, 70, 140 PPM IN DRINKING WATER 7 D/WK FOR DURATION OF STUDY (STUDY DURATION: 112 WK), Tumor Site: Type of Lesion: LUNG: ALVEOLAR CELL ADENOMA AND ADENOCARCINOMA): active; positive; carcinogen call (Species: RAT, Route: SUBCUTANEOUS, Tumor Site: Type of Lesion: EAR (ZYMBAL GLAND)): active; positive; carcinogen call (Species: RAT, Strain/Sex: F344/FEMALE, Route: ORAL, Dose: 0, 30, 70, 150 PPM IN DRINKING WATER 7 D/WK FOR 60-61 WK (STUDY DURATION: 60-61 WK), Dose: 0, 30, 70, 150 PPM IN DRINKING WATER 7 D/WK FOR 60-61 WK (STUDY DURATION: 60-61 WK)): active; positive; carcinogen call (Species: RAT, Strain/Sex: F344/MALE, Route: ORAL, Dose: 0, 30, 70, 150 PPM IN DRINKING WATER 7 D/WK FOR 60-61 WK (STUDY DURATION: 60-61 WK), Dose: 0, 30, 70, 150 PPM IN DRINKING WATER 7 D/WK FOR 60-61 WK (STUDY DURATION: 60-61 WK), Tumor Site: Type of Lesion: PREPUTIAL GLAND: ADENOMA, ADENOMA OR CARCINOMA, LARGE INTESTINE: ADENOMATOUS POLYP, ADENOCARCINOMA, SMALL INTESTINE: ADE, Tumor Site: Type of Lesion: PREPUTIAL GLAND: ADENOMA, ADENOMA OR CARCINOMA, LARGE INTESTINE: ADENOMATOUS POLYP, ADENOCARCINOMA, SMALL INTESTINE: ADE): active; positive

Question: For `Oc1cc(Cl)ccc1Oc1ccc(Cl)cc1Cl`, which carcinogen call (Species: Hamster, Strain/Sex: Bio FID Alexander Syrian/Female (60/group), Route: Oral, Dose: 0, 12.5, 75, 250 mg/kg in diet for 90-95 wk, Dose: 0, 12.5, 75, 250 mg/kg in diet for 90-95 wk) is on record?
Answer: inactive; negative (study details not given in source; purity 99.5%)

Question: What about the carcinogen call (Species: Hamster, Strain/Sex: Bio FID Alexander Syrian/Male (60/group), Route: Oral, Dose: 0, 12.5, 75, 250 mg/kg in diet for 90-95 wk, Dose: 0, 12.5, 75, 250 mg/kg in diet for 90-95 wk) of the same compound?
Answer: inactive; negative (study details not given in source; purity 99.5%)

Question: And the carcinogen call (Species: Rat, Strain/Sex: Sprague-Dawley/Female (60/group), Route: Oral, Dose: 0, 300, 1,200, 3,000 ppm in diet for 78 wk, Dose: 0, 300, 1,200, 3,000 ppm in diet for 78 wk)?
Answer: inactive; negative (study details not given in source; purity 99%)

Question: What about the carcinogen call (Species: Rat, Strain/Sex: Sprague-Dawley/Male (60/group), Route: Oral, Dose: 0, 300, 1,200, 3,000 ppm in diet for 78 wk, Dose: 0, 300, 1,200, 3,000 ppm in diet for 78 wk) of the same compound?
Answer: inactive; negative (study details not given in source; purity 99%)

Question: Which carcinogen call (Species: FISH, Strain/Sex: SHASTA RAINBOW TROUT/MALE, FEMALE, Route: ORAL, Dose: 0, 2000 PPM IN DIET FOR 18 MO (STUDY DURATION: 18 MO)) does the source give for `C=C(Cl)Cl` here?
Answer: inactive; negative

Question: What about the carcinogen call (Species: MOUSE, Route: INHALATION, Tumor Site: Type of Lesion: KIDNEY, LUNG, LIVER, Tumor Site: Type of Lesion: KIDNEY, LUNG, LIVER) of the same compound?
Answer: active; positive

Question: And the carcinogen call (Species: RAT, Strain/Sex: SPRAGUE-DAWLEY/FEMALE, Route: GAVAGE, Dose: 0, 0.5, 5, 10, 20 MG/KG BW IN OLIVE OIL 1/D 4-5 D/WK FOR 52-59 WK (STUDY DURATION: LIFETIME), Dose: 0, 0.5, 5, 10, 20 MG/KG BW IN OLIVE OIL 1/D 4-5 D/WK FOR 52-59 WK (STUDY DURATION: LIFETIME), Tumor Site: Type of Lesion: [BRAIN WAS ONLY SITE EVALUATED])?
Answer: inactive; negative

Question: And the carcinogen call (Species: RAT, Strain/Sex: SPRAGUE-DAWLEY/FEMALE, Route: INHALATION, Dose: 0, 10, 25, 50, 100, 150 PPM IN AIR 4 HR/D 4-5 D/WK FOR 52 WK (STUDY DURATION: LIFETIME), Dose: 0, 10, 25, 50, 100, 150 PPM IN AIR 4 HR/D 4-5 D/WK FOR 52 WK (STUDY DURATION: LIFETIME), Tumor Site: Type of Lesion: [BRAIN WAS ONLY SITE EVALUATED])?
Answer: inactive; negative

Question: And the carcinogen call (Species: RAT, Strain/Sex: SPRAGUE-DAWLEY/FEMALE, Route: INHALATION, Dose: 0, 100 PPM 4 HR/D 5 D/WK FOR 7 WK THEN 7 HR/D 5 D/WK FOR 8 WK ADMINISTERED TO RAT EMBRYOS BEGINNING ON THE 12TH DAY OF G)?
Answer: inactive; negative

Question: What about the carcinogen call (Species: RAT, Strain/Sex: SPRAGUE-DAWLEY/FEMALE, Route: INHALATION, Dose: 0, 100 PPM 4 HR/D 5 D/WK FOR 7 WK THEN 7 HR/D 5 D/WK FOR 97 WK ADMINISTERED TO BREEDER RATS (STUDY DURATION: 104 WK)) of the same compound?
Answer: inactive; negative

Question: What about the carcinogen call (Species: RAT, Strain/Sex: SPRAGUE-DAWLEY/FEMALE, Route: INHALATION, Dose: 0, 100 PPM 4 HR/D 5 D/WK FOR 7 WK THEN 7 HR/D 5 D/WK FOR 97 WK ADMINISTERED TO RAT EMBRYOS BEGINNING ON 12TH DAY OF GEST, Tumor Site: Type of Lesion: HEMATOPOIETIC SYSTEM: LEUKEMIA) of the same compound?
Answer: active; positive

Question: And the carcinogen call (Species: RAT, Strain/Sex: SPRAGUE-DAWLEY/FEMALE, Route: ORAL, Dose: 0, 50, 100, 200 PPM IN DRINKING WATER FOR 2 YR (STUDY DURATION: 2 YR), Dose: 0, 50, 100, 200 PPM IN DRINKING WATER FOR 2 YR (STUDY DURATION: 2 YR))?
Answer: inactive; negative

Question: And the carcinogen call (Species: RAT, Strain/Sex: SPRAGUE-DAWLEY/MALE, Route: GAVAGE, Dose: 0, 0.5, 5, 10, 20 MG/KG BW IN OLIVE OIL 1/D 4-5 D/WK FOR 52-59 WK (STUDY DURATION: LIFETIME), Dose: 0, 0.5, 5, 10, 20 MG/KG BW IN OLIVE OIL 1/D 4-5 D/WK FOR 52-59 WK (STUDY DURATION: LIFETIME), Tumor Site: Type of Lesion: [BRAIN WAS ONLY SITE EVALUATED])?
Answer: inactive; negative

Question: What about the carcinogen call (Species: RAT, Strain/Sex: SPRAGUE-DAWLEY/MALE, Route: INHALATION, Dose: 0, 10, 25, 50, 100, 150 PPM IN AIR 4 HR/D 4-5 D/WK FOR 52 WK (STUDY DURATION: LIFETIME), Dose: 0, 10, 25, 50, 100, 150 PPM IN AIR 4 HR/D 4-5 D/WK FOR 52 WK (STUDY DURATION: LIFETIME), Tumor Site: Type of Lesion: [BRAIN WAS ONLY SITE EVALUATED]) of the same compound?
Answer: inactive; negative

Question: What about the carcinogen call (Species: RAT, Strain/Sex: SPRAGUE-DAWLEY/MALE, Route: INHALATION, Dose: 0, 100 PPM 4 HR/D 5 D/WK FOR 7 WK THEN 7 HR/D 5 D/WK FOR 8 WK ADMINISTERED TO RAT EMBRYOS BEGINNING ON THE 12TH DAY OF G) of the same compound?
Answer: inactive; negative

Question: And the carcinogen call (Species: RAT, Strain/Sex: SPRAGUE-DAWLEY/MALE, Route: INHALATION, Dose: 0, 100 PPM 4 HR/D 5 D/WK FOR 7 WK THEN 7 HR/D 5 D/WK FOR 97 WK ADMINISTERED TO RAT EMBRYOS BEGINNING ON 12TH DAY OF GEST)?
Answer: inactive; negative

Question: What about the carcinogen call (Species: RAT, Strain/Sex: SPRAGUE-DAWLEY/MALE, Route: ORAL, Dose: 0, 50, 100, 200 PPM IN DRINKING WATER FOR 2 YR (STUDY DURATION: 2 YR), Dose: 0, 50, 100, 200 PPM IN DRINKING WATER FOR 2 YR (STUDY DURATION: 2 YR)) of the same compound?
Answer: inactive; negative

Question: What about the carcinogen call (Species: RAT, Strain/Sex: SPRAGUE-DAWLEY, Route: INHALATION, Tumor Site: Type of Lesion: MAMMARY GLAND: FIBROADENOMA, CARCINOMA) of the same compound?
Answer: active; positive
